Assay results reported in US6762200B2, “Oxa(thia)zolidine derivative and anti-inflammatory drug” (Nippon Soda Co. Ltd., priority 2000, dated 2004).
Like-named read-outs stand apart in the source and are kept apart here.

Columns and labels:
[1] = test system: picryl chloride-induced contact dermatitis (ear swelling); assay: Mouse delayed contact dermatitis induced by picryl chloride; details: for Ear swelling after 24 hours Left (Not applied) (Mean ± S.E., mm): topical to right ear, non-treated left ear; for Ear swelling after 24 hours Right (Applied) (Mean ± S.E., mm): topical
Method: This pharmacological test was carried out referring to the method of Asherson, G. L. & Ptak, W. (Immunology, 15: 405-416 (1968).) and the method of Jun Hiroi (Folia Pharmacology of Japan, 86: 233-239 (1985).). More specifically, hairs on the abdomen of an ICR-strain male mouse were removed using an electric clip and an electric shaver. Then, 0.1 mL of 7% ether solution of picryl chloride (Tokyo Kasei Kogyo Co., Ltd., C 0307) was applied onto the abdomen for sensitization. On the sixth day after the sensitization, 20 μL/ear of 1% olive oil solution of picryl chloride was topically applied to the anterior and posterior surfaces of both ears of the mouse to induce contact dermatitis (first induction). Before and 24 hours after the induction, the thicknesses of the particular parts on the both ears were measured three times, respectively, using a digimatic micrometer (Mitsutoyo Co., Ltd.) to work out the average values. Ear edema of the both ears was respectively determined by subtracting the average thickness of the each ear before the induction from that on 24 hours after the induction, so that a grouping was carried out to separate the appropriate individuals. On the fourth day after the first induction, the hairs on the abdomen were removed again, and 0.1 mL of 7% ethanol solution of picryl chloride was applied thereto for additional sensitization. The contact dermatitis for evaluating activity was induced by re-applying 20 μL/ear of 1% olive oil solution of picryl chloride to the anterior and posterior surfaces of both ears (second induction) on the seventh day after the additional sensitization (on the […] day after the first sensitization). The activity of each compound of the present invention was evaluated as the inhibition on the contact dermatitis as compared with that of the vehicle applied control. That is, the thicknesses of the particular portions of the both ears were measured respectively three times with a digimatic micrometer to work out the mean values before, 24 hours and 48 hours after the second induction. Ear swelling was determined by subtracting the ear thickness before the second induction from that on 24 hours and 48 hours after the second induction, respectively. Topical application activity was evaluated by applying 25 μL of the acetone solution of the compound of the present invention similarly to the anterior and posterior surfaces of the right ear one hour before and 16 hours after the second induction. As the positive control, 0.02 mg/20 μL of acetone solution of Dexamethasone (hereinafter referred to as DEX, Wako Pure Chemical Industries Ltd., 047-18863) was applied similarly as for the compound of the present invention. With respect to the inhibitory activity in topical application tests, the topical activity was determined by the inhibition of the applied right ear edema, and the translocation and distribution property was determined by the activity onto the swelling of non-treated left ear. Oral administration activity was evaluated by administrating 0.5% methyl cellulose suspension of the compound of the present invention forcibly and perorally to the mouse an hour before and 16 hours after the second induction. As the positive control, 20 mg/kg of Prednisolone (Sigma Chemical Co., P 6004) suspension was administrated similarly as for the compounds of the present invention.

[2] = biological target: T1, IV-cPLA(2) (Homo sapiens, UniProt P47712); assay: PLA(2) activity, hydrolysis of bis-BODIPY FL C11-PC in activated U937 cells; format: cell-based
T1 sequence (P47712 1-749): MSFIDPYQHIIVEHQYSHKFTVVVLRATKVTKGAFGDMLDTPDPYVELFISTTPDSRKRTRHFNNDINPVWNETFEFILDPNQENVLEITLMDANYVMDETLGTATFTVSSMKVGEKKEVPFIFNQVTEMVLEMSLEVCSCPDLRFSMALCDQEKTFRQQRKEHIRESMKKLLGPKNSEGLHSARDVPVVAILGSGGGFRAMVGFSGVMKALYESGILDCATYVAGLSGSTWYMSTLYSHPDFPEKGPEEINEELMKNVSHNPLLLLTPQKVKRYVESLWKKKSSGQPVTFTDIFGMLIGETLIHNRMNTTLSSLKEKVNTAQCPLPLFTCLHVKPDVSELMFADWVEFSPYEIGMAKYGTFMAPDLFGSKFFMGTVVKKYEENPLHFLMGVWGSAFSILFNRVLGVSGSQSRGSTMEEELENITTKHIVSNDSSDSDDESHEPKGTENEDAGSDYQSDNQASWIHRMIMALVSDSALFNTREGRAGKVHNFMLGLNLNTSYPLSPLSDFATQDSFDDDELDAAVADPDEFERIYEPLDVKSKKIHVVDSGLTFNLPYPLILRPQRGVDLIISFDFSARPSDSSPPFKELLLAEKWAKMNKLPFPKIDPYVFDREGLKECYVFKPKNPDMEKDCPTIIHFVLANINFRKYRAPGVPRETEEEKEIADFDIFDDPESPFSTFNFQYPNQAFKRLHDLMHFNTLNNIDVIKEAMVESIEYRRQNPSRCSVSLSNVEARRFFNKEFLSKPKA
Method: The PLA(2) activity was measured by quantitatively analyzing the fluorescent product of hydrolysis from 1,2-bis-(4,4-difluoro-5,7-dimethyl-4-bora-3a,4a-diaza-s-indecene-3-undecanoyl)-sn-glycero-3-phosphocholine (hereinafter referred to bis-BODIPY®FL C11—PC, Molecular Probes, Inc., B-7701) using activated U937 cells (human monoblastic lymphoma cell line) by inflammatory stimulus (Meshulam, T. et al., The journal of Biological Chemistry 267 (30): 21465-21470 (1992); and Solito, E. et al., British Journal of Pharmacology 124: 1675-1683 (1998).). The substrate bis-BODIPY®FL C11—PC is incorporated into cellular membranes, the proximity of the BODIPY FL fluorophores on adjacent phospholipid acyl chains causes fluorescence self-quenching. Separation of the fluorophores upon hydrolytic cleavage of one of the acyl chains by PLA(1) or the PLA(2) results in increased fluorescence. In the activated U937 by inflammatory stimulus, it is shown that this substrate should be cleaved enzymatically by IV-cPLA(2) from the feature of its behaviors including sensitivity profiles against the inhibitors.
The human cell line U937 was purchased from Dai-Nippon Pharmaceuticals Co., Ltd. The cells were maintained by transferring every 3-4 days into RPMI 1640 medium (Sigma Chemical Co., R6504) supplemented with heat-inactivated 10% fetal bovine serum (Fetal Bovine Serum, Sigma Chemical Co., F 4135) in a 5% CO2 humidified atmosphere at 37° C. The cells were transferred into the culture medium described above, containing 1.2% (v/v) dimethylsulfoxide (hereinafter referred to as […], Nacalai tesque Co., Ltd., D 134-45), and pre-cultured for 96 to 120 hours so as to differentiate into the macrophage-like cells to be provided for the assay. The macrophage-like cells were collected and washed by centrifugation with the Assay medium (Dulbecco's phosphate buffered saline (hereinafter referred to as PBS)-2.2 mM glucose-2.5 μm albumin). Then, Phorbol 12-Myristate 13-Acetate (hereinafter referred to as TPA, Sigma Chemical Co., P 8139) was added to the Assay medium to be 1×10^−8M as the final concentration. Then, the macrophage-like cells were further cultured for an hour to be activated (Rzigalinski, B. A. & Rosenthal, M. D., Biochimica et Biophysica Acta 1223: 219-225 (1994); and Gonchar, M. V. et al., Biochemical and Biophysical Research Communication, 249: 829-832 (1998).).
For preparing substrate liposome suspension, bis-BODIPY®FL C11—PC was combined with phosphatidylcholine (Sigma Chemical Co., P 7769) at 1:9 molar ratio in chloroform, and dried under nitrogen flow. The dried mixture was suspended with the Assay medium at 100 μg/mL, voltexed and sonicated for an hour on ice under dark condition.
The test compound was dissolved with DMSO at 30 mM, and the solution diluted with either DMSO or the Assay medium before addition into the reaction mixture. The DMSO concentration in the reaction mixture was controlled so as to be no more than 0.1%. The 30-fold concentration of test compound solution was put into each well of MICRPTEST™ Tissue Culture Plate, 96 Well (Falcon, 3072) at a rate of 2.5 μL/well. To the respective well was added 25 μL/well of the activated U937 cell suspension ([…]), and the cells were pre-cultured for 120 min. at 37° C. in a 5% CO2 atmosphere incubator. 47.5 μL/well of the substrate liposome suspension with 1.5×10^−6M A23187 (Sigma Chemical Co., C 7522) was added into each well to prepare 75 μL/well of the total reaction mixture, followed by culture for 30 min. under the same conditions with shielding against light. 100 μL/well of 0.1% GEDTA (Dojindo Laboratories Co. Ltd., 348-01311) methanol solution was added into each well and mixed to stop the reaction. […]

[3] = test system: TPA-induced ear edema; format: in vivo, ICR-strain male mouse; details: topical, 6 hours after TPA
Method: This test was carried out referring to the method of Carlson, R. P. et al. (Agents and Actions, 17(2): 197-204 (1985).) and the method of Chang, J. (European Journal of Pharmacology, 142: 197-205 (1987).). […] 6 hours later, the thickness of each ear at the particular part was respectively measured three times using a digimatic micrometer to calculate the mean value. Ear edema was determined by subtracting the mean thickness of the left ear as without treatment from that of the right ear as TPA-applied. […] As the positive control, 100 mg/kg of Hydrocortisone (Sigma Chemical Co., H 4001) suspension was applied to the mouse similarly as for the compound of the present invention.

CC(=O)N=C1SC(c2ccccc2)C(C)N1C(=O)NC1CCCCC1 (centres unmarked) [Compound 1-43]
Ear swelling after 24 hours Left (Not applied) (Mean ± S.E., mm) ([1]; 1.5 mg/25 μL/ear × 2): 0.201 ± 0.008 mm
Ear swelling after 24 hours Right (Applied) (Mean ± S.E., mm) ([1]; 1.5 mg/25 μL/ear × 2): 0.196 ± 0.029 mm

CC1C(c2ccc(Cl)cc2)SC(=O)N1C(=O)NS(=O)(=O)c1ccccc1Cl (centres unmarked) [Compound 2-36]
Inhibition (%) ([2]; 0.1 μM): 61%
Ear Edema Inhibition (%) ([3]; 0.3 mg/20 μL/ear × 2): 41%

CCOC(=O)C(C)NC(=O)N1C(=O)OC(c2ccc(C)cc2)C1C (centres unmarked) [Compound 2-54]
Inhibition (%) ([2]; 0.1 μM): 95%
Ear Edema Inhibition (%) ([3]; 0.3 mg/20 μL/ear × 2): 64%

CCN(CC)S(=O)(=O)NC(=O)N1C(=O)OC(c2ccc(C)cc2)C1C (centres unmarked) [Compound 2-55]
Inhibition (%) ([2]; 0.1 μM): 94%
Ear Edema Inhibition (%) ([3]; 1 mg/40 μL/ear × 2): 54%

Cc1ccc(C2OC(=O)N(C(=O)NS(=O)(=O)c3ccccc3C)C2C)cc1 (centres unmarked) [Compound 2-60]
Inhibition (%) ([2]; 0.1 μM): 100%
Ear Edema Inhibition (%) ([3]; 1 mg/40 μL/ear × 2): 53%

CC1C(c2ccc3c(c2)CCCC3)OC(=O)N1C(=O)NC1CCCCO1 (centres unmarked) [Compound 2-125]
Inhibition (%) ([2]; 0.1 μM): 62%
Ear Edema Inhibition (%) ([3]; 1 mg/40 μL/ear × 2): 62%

CC1C(c2ccc3c(c2)CCC3)OC(=O)N1C(=O)NC1CCCCO1 (centres unmarked) [Compound 2-127]
Inhibition (%) ([2]; 0.01 μM): 54%
Ear Edema Inhibition (%) ([3]; 1 mg/40 μL/ear × 2): 81%

CC1C(c2ccc(Oc3ccccc3)cc2)OC(=O)N1C(=O)NC1CCCO1 (centres unmarked) [Compound 2-128]
Inhibition (%) ([2]; 1 μM): 81%
Ear Edema Inhibition (%) ([3]; 1 mg/40 μL/ear × 2): 49%

CC1C(c2ccccn2)OC(=O)N1C(=O)Nc1ccc(Cl)cc1 (centres unmarked) [Compound 2-146]
Inhibition (%) ([2]; 0.1 μM): 85%
Ear Edema Inhibition (%) ([3]; 1 mg/40 μL/ear × 2): 80%

Cc1ccc(C2OC(=O)N(C(=O)NC3CCCCO3)C2C)cc1C (centres unmarked) [Compound 2-156]
Inhibition (%) ([2]; 0.1 μM): 88%
Ear Edema Inhibition (%) ([3]; 1 mg/20 μL/ear × 2): 48%

Cc1ccc(C2OC(=O)N(C(=O)NC3CCCCO3)C2C)cc1 (centres unmarked) [Compound 2-170]
Inhibition (%) ([2]; 0.1 μM): 82%
Ear Edema Inhibition (%) ([3]; 0.3 mg/20 μL/ear × 2): 57%

CC1C(c2ccc(Cl)cc2)SC(=O)N1C(=S)NC1CCCCC1 (centres unmarked) [Compound 2-194]
Ear swelling after 24 hours Left (Not applied) (Mean ± S.E., mm) ([1]; 1.5 mg/25 μL/ear × 2): 0.226 ± 0.016 mm
Ear swelling after 24 hours Right (Applied) (Mean ± S.E., mm) ([1]; 1.5 mg/25 μL/ear × 2): 0.223 ± 0.010 mm
Inhibition (%) ([2]; 1 μM): 78%

CC1C(c2ccc(C(=O)OC(F)(F)F)cc2)SC(=O)N1C(=O)NC1CCCCO1 (centres unmarked) [Compound 2-240]
Ear swelling after 24 hours Left (Not applied) (Mean ± S.E., mm) ([1]; 1.5 mg/25 μL/ear × 2): 0.238 ± 0.024 mm
Ear swelling after 24 hours Right (Applied) (Mean ± S.E., mm) ([1]; 1.5 mg/25 μL/ear × 2): 0.246 ± 0.009 mm

C[C@@H]1C[C@H]2[C@@H]3CCC4=CC(=O)C=C[C@]4(C)[C@@]3(F)[C@@H](O)C[C@]2(C)[C@@]1(O)C(=O)CO [DEX, Dexamethasone, reference compound]
Change in body weight 48 hours after induction (Mean ± S.E.) ([1]; 0.02 mg/ear × 2): -1.42 ± 0.20 g
Change in body weight 48 hours after induction (Mean ± S.E.) (%) ([1]; 0.02 mg/ear × 2): −4.30 ± 0.59%
General condition and body weight of mice ([1]; 48 hours after the second induction): generally bad symptoms and reducing their body weight significantly
Ear swelling after 24 hours Left (Not applied) (Mean ± S.E., mm) ([1]; dose 0.02 mg/ear × 2): −0.005 ± 0.033 mm
Ear swelling after 24 hours Right (Applied) (Mean ± S.E., mm) ([1]; dose 0.02 mg/ear × 2): 0.057 ± 0.009 mm
